Assay results taken from ChEMBL document CHEMBL4017444, “Development of N-hydroxycinnamamide-based HDAC inhibitors with improved HDAC inhibitory activity and in vitro antitumor activity” (Bioorg Med Chem, 2017).

Assays:
K562 = assay: Antiproliferative activity against human K562 cells after 48 hrs by MTT assay; assay type: functional, cell-based; settings: K562, 48 h
HEL = assay: Antiproliferative activity against human HEL cells after 48 hrs by MTT assay; assay type: functional, cell-based
HeLa = assay: Antiproliferative activity against human HeLa cells after 48 hrs by MTT assay; assay type: functional, cell-based
[1] = Inhibition of HDAC in human HeLa cell nuclear extracts using (Boc-Lys(Ac)-AMC as substrate preincubated for 5 mins followed by substrate addition measured after 30 mins by fluorescence assay; assay type: cell-based
MOLT-4 = assay: Antiproliferative activity against human MOLT4 cells after 48 hrs by MTT assay; assay type: functional, cell-based; settings: MOLT-4, 48 h
PC-3 = assay: Antiproliferative activity against human PC3 cells after 48 hrs by MTT assay; assay type: functional, cell-based; settings: PC-3, 48 h
Histone deacetylase 3 = Histone deacetylase 3 (Homo sapiens, UniProt O15379); assay: Inhibition of HDAC3 (unknown origin) using Ac-Leu-GlyLys(Ac)-AMC as substrate preincubated for 5 mins followed by substrate addition measured after 30 mins by fluorescence assay
Histone deacetylase 1 = Histone deacetylase 1 (Homo sapiens, UniProt Q13547); assay: Inhibition of HDAC1 (unknown origin) using Ac-Leu-GlyLys(Ac)-AMC as substrate preincubated for 5 mins followed by substrate addition measured after 30 mins by fluorescence assay
Histone deacetylase 2 = Histone deacetylase 2 (Homo sapiens, UniProt Q92769); assay: Inhibition of HDAC2 (unknown origin) using Ac-Leu-GlyLys(Ac)-AMC as substrate preincubated for 5 mins followed by substrate addition measured after 30 mins by fluorescence assay
[2] = target: T1, Protein deacetylase HDAC6 (Homo sapiens, UniProt Q9UBN7); assay: Inhibition of HDAC6 (unknown origin) using Ac-Leu-GlyLys(Ac)-AMC as substrate preincubated for 5 mins followed by substrate addition measured after 30 mins by fluorescence assay
T1 sequence (Q9UBN7 whole entry): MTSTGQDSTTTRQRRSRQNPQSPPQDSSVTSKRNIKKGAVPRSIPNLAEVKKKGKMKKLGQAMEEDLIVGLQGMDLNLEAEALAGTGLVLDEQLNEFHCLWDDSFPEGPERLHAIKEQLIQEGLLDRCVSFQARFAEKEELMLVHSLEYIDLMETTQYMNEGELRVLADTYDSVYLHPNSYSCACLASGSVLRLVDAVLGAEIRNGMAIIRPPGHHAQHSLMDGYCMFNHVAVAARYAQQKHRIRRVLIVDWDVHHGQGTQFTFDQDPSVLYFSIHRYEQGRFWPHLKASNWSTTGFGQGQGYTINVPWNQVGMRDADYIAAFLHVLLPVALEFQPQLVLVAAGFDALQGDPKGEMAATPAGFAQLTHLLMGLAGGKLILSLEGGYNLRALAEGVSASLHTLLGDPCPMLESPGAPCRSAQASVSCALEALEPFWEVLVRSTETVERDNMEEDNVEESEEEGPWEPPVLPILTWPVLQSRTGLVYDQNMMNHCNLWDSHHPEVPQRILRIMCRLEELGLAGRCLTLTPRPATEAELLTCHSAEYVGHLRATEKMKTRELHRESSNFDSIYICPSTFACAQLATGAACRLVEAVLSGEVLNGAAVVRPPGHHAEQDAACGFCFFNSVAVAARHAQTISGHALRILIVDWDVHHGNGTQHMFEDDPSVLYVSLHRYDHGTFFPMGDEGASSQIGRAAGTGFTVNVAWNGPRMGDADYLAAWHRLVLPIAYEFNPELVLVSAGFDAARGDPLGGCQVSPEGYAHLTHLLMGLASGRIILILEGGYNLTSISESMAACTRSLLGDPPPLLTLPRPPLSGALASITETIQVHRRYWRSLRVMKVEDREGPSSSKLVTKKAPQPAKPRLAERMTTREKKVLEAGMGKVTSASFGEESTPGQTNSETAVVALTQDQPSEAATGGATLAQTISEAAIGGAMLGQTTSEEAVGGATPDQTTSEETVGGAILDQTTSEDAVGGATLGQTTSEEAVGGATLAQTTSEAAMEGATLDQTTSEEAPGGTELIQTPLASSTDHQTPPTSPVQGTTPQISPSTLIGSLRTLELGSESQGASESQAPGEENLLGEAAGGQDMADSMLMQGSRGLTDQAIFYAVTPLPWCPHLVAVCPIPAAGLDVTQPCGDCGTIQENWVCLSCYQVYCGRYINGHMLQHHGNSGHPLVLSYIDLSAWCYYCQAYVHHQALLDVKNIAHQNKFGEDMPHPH

Sequence of Histone deacetylase 1 (Q13547 whole entry): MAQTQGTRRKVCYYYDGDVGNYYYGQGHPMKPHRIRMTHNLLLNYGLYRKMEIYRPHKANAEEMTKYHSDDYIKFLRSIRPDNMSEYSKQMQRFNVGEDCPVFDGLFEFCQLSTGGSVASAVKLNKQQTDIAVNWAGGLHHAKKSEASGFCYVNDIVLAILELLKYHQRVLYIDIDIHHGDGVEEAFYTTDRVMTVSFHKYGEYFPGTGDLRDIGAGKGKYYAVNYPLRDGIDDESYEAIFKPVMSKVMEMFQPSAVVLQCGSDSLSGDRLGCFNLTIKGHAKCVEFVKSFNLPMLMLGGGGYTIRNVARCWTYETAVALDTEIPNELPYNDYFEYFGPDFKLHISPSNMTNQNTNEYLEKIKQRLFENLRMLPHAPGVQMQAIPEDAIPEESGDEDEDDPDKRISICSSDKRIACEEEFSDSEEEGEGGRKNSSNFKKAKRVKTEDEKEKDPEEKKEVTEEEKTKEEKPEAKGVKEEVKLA
Sequence of Histone deacetylase 3 (O15379 whole entry): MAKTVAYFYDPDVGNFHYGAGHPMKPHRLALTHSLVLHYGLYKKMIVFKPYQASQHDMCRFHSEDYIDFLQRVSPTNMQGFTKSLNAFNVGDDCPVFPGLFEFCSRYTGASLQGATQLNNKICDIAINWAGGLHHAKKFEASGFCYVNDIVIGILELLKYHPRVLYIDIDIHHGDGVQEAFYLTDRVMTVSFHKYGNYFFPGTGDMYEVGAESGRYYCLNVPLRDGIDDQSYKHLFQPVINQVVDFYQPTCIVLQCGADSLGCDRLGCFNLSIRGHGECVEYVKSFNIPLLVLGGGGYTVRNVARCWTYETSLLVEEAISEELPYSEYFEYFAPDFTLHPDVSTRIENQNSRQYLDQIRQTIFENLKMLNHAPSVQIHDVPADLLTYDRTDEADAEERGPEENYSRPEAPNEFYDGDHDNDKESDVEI
Sequence of Histone deacetylase 2 (Q92769 whole entry): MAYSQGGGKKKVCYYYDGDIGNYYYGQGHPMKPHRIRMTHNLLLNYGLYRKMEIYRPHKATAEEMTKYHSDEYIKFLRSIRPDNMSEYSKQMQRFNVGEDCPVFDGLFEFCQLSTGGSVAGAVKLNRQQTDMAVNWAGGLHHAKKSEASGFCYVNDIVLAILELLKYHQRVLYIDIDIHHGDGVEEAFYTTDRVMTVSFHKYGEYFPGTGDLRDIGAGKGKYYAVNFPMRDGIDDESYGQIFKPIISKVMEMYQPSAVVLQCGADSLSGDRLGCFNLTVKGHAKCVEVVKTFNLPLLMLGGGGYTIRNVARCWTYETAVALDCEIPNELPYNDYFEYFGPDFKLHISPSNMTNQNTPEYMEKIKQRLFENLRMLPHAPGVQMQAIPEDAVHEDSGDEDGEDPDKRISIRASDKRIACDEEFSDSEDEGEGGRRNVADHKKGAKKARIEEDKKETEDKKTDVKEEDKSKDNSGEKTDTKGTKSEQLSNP

Structure (SMILES) | IC50 [1] | other results
COc1cc(/C=C/C(=O)NO)ccc1OC[C@H](Cc1c[nH]c2ccccc12)NC(=O)c1cccc(Cl)c1 | 14.4 nM | IC50 (K562): 280 nM; IC50 (HEL): 130 nM; IC50 (HeLa): 430 nM; IC50 (MOLT-4): 60 nM; IC50 (PC-3): 1000 nM
COc1cc(/C=C/C(=O)NO)ccc1OC[C@H](Cc1c[nH]c2ccccc12)NC(=O)c1ccccc1F | 76.5 nM | –
COc1cccc(C(=O)N[C@H](COc2ccc(/C=C/C(=O)NO)cc2OC)Cc2c[nH]c3ccccc23)c1 | 14.1 nM | –
COc1cc(/C=C/C(=O)NO)ccc1OC[C@H](Cc1c[nH]c2ccccc12)NC(=O)c1ccc(NC(C)=O)cc1O | 47.1 nM | –
COc1cc(/C=C/C(=O)NO)ccc1OC[C@H](Cc1c[nH]c2ccccc12)NC(=O)c1ccc(Cl)cc1 | 23.3 nM | –
COc1cc(/C=C/C(=O)NO)ccc1OC[C@H](Cc1c[nH]c2ccccc12)NC(=O)c1ccc(Br)cc1 | 12.1 nM | IC50 (K562): 510 nM; IC50 (HEL): 210 nM; IC50 (HeLa): 580 nM; IC50 (MOLT-4): 60 nM; IC50 (PC-3): 1250 nM
COc1cc(/C=C/C(=O)NO)ccc1OC[C@H](Cc1c[nH]c2ccccc12)NC(=O)c1cccc([N+](=O)[O-])c1 | 34.4 nM | –
COc1cc(/C=C/C(=O)NO)ccc1OC[C@H](Cc1c[nH]c2ccccc12)NC(=O)c1ccccc1Cl | 22.5 nM | –
COc1cc(/C=C/C(=O)NO)ccc1OC[C@H](Cc1c[nH]c2ccccc12)NC(=O)c1cccc(C)c1 | 24.2 nM | –
COc1cc(/C=C/C(=O)NO)ccc1OC[C@H](Cc1c[nH]c2ccccc12)NC(=O)c1ccccc1[N+](=O)[O-] | 75.7 nM | –
COc1ccc(C(=O)N[C@H](COc2ccc(/C=C/C(=O)NO)cc2OC)Cc2c[nH]c3ccccc23)cc1 | 9.6 nM | IC50 (K562): 280 nM; IC50 (HEL): 130 nM; IC50 (Histone deacetylase 3): 7.1 nM; IC50 (Histone deacetylase 1): 17.5 nM; IC50 (HeLa): 430 nM; IC50 (MOLT-4): 60 nM; IC50 (Histone deacetylase 2): 59.5 nM; IC50 [2]: 87 nM; IC50 (PC-3): 1000 nM
COc1cc(/C=C/C(=O)NO)ccc1OC[C@H](Cc1c[nH]c2ccccc12)NC(=O)c1ccc(Cl)cc1Cl | 95 nM | –
COc1cc(/C=C/C(=O)NO)ccc1OC[C@H](Cc1c[nH]c2ccccc12)NC(=O)c1ccccc1Br | 62.2 nM | –
COc1cc(/C=C/C(=O)NO)ccc1OC[C@H](Cc1c[nH]c2ccccc12)NC(=O)c1ccccc1OC | 60 nM | –
COc1cc(/C=C/C(=O)NO)ccc1OC[C@H](Cc1c[nH]c2ccccc12)NC(=O)c1ccc(Br)cc1Cl | 114 nM | –

The remaining compounds from weak to strong by IC50 [1], led by results:

IC50 [1] | Structure (SMILES) | other results
102 nM | COc1cc(/C=C/C(=O)NO)ccc1OC[C@H](Cc1c[nH]c2ccccc12)NC(=O)c1ccccc1C | –
60.7 nM | COc1cc(/C=C/C(=O)NO)ccc1OC[C@H](Cc1c[nH]c2ccccc12)NC(=O)c1ccc([N+](=O)[O-])cc1 | –
60 nM | COc1cc(/C=C/C(=O)NO)ccc1OC[C@H](Cc1c[nH]c2ccccc12)NC(=O)c1cccc(F)c1 | –
54.8 nM | COc1cc(/C=C/C(=O)NO)ccc1OC[C@H](Cc1c[nH]c2ccccc12)NC(=O)Cc1ccccc1 | –
48.6 nM | COc1cc(/C=C/C(=O)NO)ccc1OC[C@H](Cc1c[nH]c2ccccc12)NC(=O)c1ccc(F)cc1 | –
42.4 nM | COc1cc(/C=C/C(=O)NO)ccc1OC[C@H](Cc1c[nH]c2ccccc12)NC(=O)CCCc1ccccc1 | –
21.7 nM | COc1cc(/C=C/C(=O)NO)ccc1OC[C@H](Cc1c[nH]c2ccccc12)NC(=O)CCc1ccccc1 | –
19.5 nM | COc1cc(/C=C/C(=O)NO)ccc1OC[C@H](Cc1c[nH]c2ccccc12)NC(=O)c1cccc(Br)c1 | –
15.8 nM | COc1cc(/C=C/C(=O)NO)ccc1OC[C@H](Cc1c[nH]c2ccccc12)NC(=O)c1ccccc1 | –
8.1 nM | COc1cc(/C=C/C(=O)NO)ccc1OC[C@H](Cc1c[nH]c2ccccc12)NC(=O)c1ccc(C)cc1 | IC50 (K562): 320 nM; IC50 (HEL): 150 nM; IC50 (HeLa): 310 nM; IC50 (MOLT-4): 40 nM; IC50 (PC-3): 1090 nM
